What all share (assay): growth of human tumour cells (NCI), 48 h
Assay [1] concerns OVCAR-4.
The subject of assay [2] is SN12C.
Assay [3] relates to Hs-578T.
Assay [4] deals with HCT-116.
Assay [5] has as its system MDA-MB-231.
Assay [6] relates to IGROV-1.
In assay [7] the test system is NCI-H460.
Assay [8] has as its system MDA-MB-435.
Assay [9] has as its system SF-295.
Assay [10] deals with NCI-H23.
For assay [11], the system named is CCRF-CEM.
In assay [12] the test system is Malme-3M.
In assay [13] the test system is UO-31.
Assay [14] relates to UACC-257.
The subject of assay [15] is COLO 205.
The test system of assay [16] is HCT-15.
Assay [17] concerns T47D.
For assay [18], the system named is HOP-92.
In assay [19] the test system is NCI-H522.

Values joined by “and” are separate entries in the source; they are usually repeats but may differ in a detail not shown here. Equal entries are not always repeated.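 Tested at 5 concentrations; 48 h exposure; 96-well plates; endpoints linearly interpolated, else capped at highest concentration. At the GI50, growth is halved.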 Active and inactive are the calls of the source. No stated cut-off is given here; in the data, active = GI50 up to about 1.1 µM and inactive = higher. Peptide text beside a SMILES is read from it. * marks the point of attachment. Boc = CC(C)(C)OC(=O)*; OBn = c1ccc(CO*)cc1; Bn = c1ccc(C*)cc1 A value given as a limit tells only on which side of the number the result lay.

For the compound `CC(=O)NC(C)(C)C1CCC(C)CC1` (stereo not drawn), the GI50 was > 100 µM (inactive) in assay [1]; > 100 µM (inactive) in assay [2]; 48.9 µM (inactive) in [3]; > 100 µM (inactive) in assay [4]; > 100 µM (inactive) in [5]; > 100 µM (inactive) in assay [6]. The GI50 in assay [7], in [8], in [9], in assay [10], in assay [11] and in [12] was > 100 µM (inactive) each time. Also, the GI50 in assay [13] is > 100 µM (inactive); in assay [14] it was > 100 µM (inactive); in assay [15], > 100 µM (inactive); in [16], greater than 100 µM.

Consider `N=C(N)C1CN(CCc2c[nH]c3ccccc23)C(=O)NC1=O` (stereo not drawn), for which the GI50 in assay [1], in assay [2], in [4], in assay [5], in assay [6] and in assay [7] was > 100 µM (inactive) each time. In addition, the GI50 in [17], in assay [8], in [18], in [9], in [10] and in [11] was > 100 µM (inactive) each time. In addition, the GI50 is > 100 µM (inactive) in [12]; > 100 µM (inactive) in [13]; > 100 µM (inactive) in assay [14]; > 100 µM (inactive) in assay [15]; greater than 100 µM in [16].

Consider `Cn1nc(-c2ccccc2)c(C(=O)/C=C/c2ccccc2)c(N2CCCCC2)c1=O`, for which the GI50 was > 100 µM (inactive) in assay [2]; 4.91 µM (inactive) in assay [4]; > 100 µM (inactive) in [6]; 7.67 µM (inactive) in assay [7]; 7.31 µM (inactive) in assay [18]; 14 µM (inactive) in [10]. Moreover, the GI50 in assay [11] was 3.72 µM (inactive); in assay [13], 17.5 µM (inactive); in assay [15], 9.98 µM (inactive); in [16], 17.7 µM; in assay [19], 7.05 µM (inactive).

For `O=C1OCC(O)=C1C(c1ccc(Cl)cc1)c1cc2c(cc1O)OCO2` (stereo not drawn), the GI50 in assay [1], in [2], in assay [3], in [4], in [5] and in [6] was > 100 µM (inactive) in each case. In addition, the GI50 in assay [7], in assay [8], in assay [18], in assay [11], in assay [12] and in assay [13] was > 100 µM (inactive) throughout. The GI50 in [15] is > 100 µM (inactive); in [16], greater than 100 µM.

Take `CCCNC(=O)CCC(C)C1CCC2C3C(C[C@H](OC(C)=O)[C@]12C)[C@@]1(C)CCC2(C[C@H]1C[C@H]3OC(C)=O)OOC1(CC[C@]3(C)C4C[C@H](OC(C)=O)[C@]5(C)C(C(C)CCC(=O)NCCC)CCC5C4[C@H](OC(C)=O)C[C@@H]3C1)OO2` (stereo partly drawn): the GI50 was > 100 µM (inactive) in assay [1]; > 100 µM (inactive) in assay [2]; 19 µM (inactive) in [3]; > 100 µM (inactive) in assay [4]; 11.3 µM (inactive) in assay [5]; 20.2 µM (inactive) in assay [6]. For the same compound, the GI50 in assay [7] is > 100 µM (inactive); in assay [8], > 100 µM (inactive); in [9] it was 60.4 µM (inactive); in assay [10], > 100 µM (inactive); in [11] it was > 100 µM (inactive); in assay [12], 34.6 µM (inactive). The GI50 in assay [13] is 0.101 µM (active); in assay [14] it was 31 µM (inactive); in assay [15], > 100 µM (inactive); in assay [16], greater than 100 µM; in [19] it was > 100 µM (inactive).

Consider `Cc1nc2ccc(Cl)cc2c(Cl)c1CCCl`, for which the GI50 in assay [2] is 39.5 µM (inactive); in assay [3], 38.1 µM (inactive); in assay [4], 25.4 µM (inactive); in assay [5], 83.6 µM (inactive); in [6] it was 72.6 µM (inactive); in assay [7], 43.4 µM (inactive). In addition, the GI50 in [8] was 8.36 µM (inactive); in [18] it was 33.5 µM (inactive); in assay [9], 48.2 µM (inactive); in assay [10], 60.4 µM (inactive); in [11], 15.1 µM (inactive); in assay [12] it was > 100 µM (inactive). For the same compound, the GI50 is 42.2 µM (inactive) in assay [13]; 74 µM (inactive) in assay [14]; 57.3 µM (inactive) in assay [15]; 43.1 µM in [16]; 39.3 µM (inactive) in [19].

As to `Cc1ccc(S(=O)(=O)NC(=O)Nc2cc(Cl)c(S(N)(=O)=O)cc2S(N)(=O)=O)cc1`, the GI50 in assay [1], in assay [2], in assay [3], in assay [4], in assay [5] and in assay [6] was > 100 µM (inactive) each time. Further, the GI50 in assay [8], in [18], in assay [9], in assay [10], in assay [11] and in assay [12] was > 100 µM (inactive) in each case. For the same compound, the GI50 was > 100 µM (inactive) in [13]; > 100 µM (inactive) in assay [14]; > 100 µM (inactive) in assay [15]; greater than 100 µM in assay [16]; > 100 µM (inactive) in assay [19].

In the case of `C=C[C@@]1(C)CC(=O)[C@]2(O)[C@@]3(C)[C@@H](OC(C)=O)CCC(C)(C)[C@@H]3[C@H](OC(C)=O)[C@H](OC(C)=O)[C@@]2(C)O1`, the GI50 in [1] is > 100 µM (inactive); in [2] it was > 100 µM (inactive); in assay [4], > 100 µM (inactive); in assay [5] it was > 100 µM (inactive); in assay [6] it was 56.6 µM (inactive); in assay [7] it was > 100 µM (inactive). The GI50 in [17], in assay [8], in [18], in assay [9], in assay [10] and in assay [13] was > 100 µM (inactive) throughout. Besides, the GI50 in assay [14] is > 100 µM (inactive); in assay [16] it was greater than 100 µM.

In the case of `CC1OC(OC2C(OC(=O)[C@]34CCC(C)(C)C[C@H]3C3=CC[C@@H]5[C@@]6(C)CC[C@H](OC7OC(C(=O)O)C(O)C(O)C7O)C(C)(C)[C@@H]6CC[C@@]5(C)[C@]3(C)CC4)OCC(O)C2O)C(O)C(O)C1OC1OCC(O)C(O)C1O` (stereo partly drawn), the GI50 in [1] is 54 µM (inactive) and 53.8 µM (inactive); in [2] it was 22.1 µM (inactive) and 19.4 µM (inactive); in assay [4], 39.9 µM (inactive) and 45.9 µM (inactive); in assay [5], 11 µM (inactive) and 21.5 µM (inactive); in assay [6], > 100 µM (inactive); in [7], > 100 µM (inactive). The GI50 in [17] is 34.8 µM (inactive) and 56.9 µM (inactive); in assay [8] it was 18.3 µM (inactive) and 18.9 µM (inactive); in assay [18], 30.6 µM (inactive) and 20.5 µM (inactive); in [10], 17.7 µM (inactive) and 19.6 µM (inactive); in [11], 77.4 µM (inactive); in assay [12], 34.7 µM (inactive) and 28.3 µM (inactive). Moreover, the GI50 was 16.8 µM (inactive) and 22.1 µM (inactive) in assay [13]; 45 µM (inactive) and 29.8 µM (inactive) in [14]; 16.7 µM (inactive) and 17.3 µM (inactive) in assay [15]; greater than 100 µM in assay [16]; 45.1 µM (inactive) and 45.5 µM (inactive) in assay [19].

As to `C=C=C(C)C(=O)N(C(C)C)C(C)C`, the GI50 in assay [1], in assay [2], in [4], in assay [5], in assay [6] and in [7] was > 100 µM (inactive) in each case. For the same compound, the GI50 in assay [17], in assay [8], in assay [18], in assay [9], in assay [10] and in assay [11] was > 100 µM (inactive) in each case. Besides, the GI50 in assay [12] was > 100 µM (inactive); in assay [13], > 100 µM (inactive); in assay [14] it was > 100 µM (inactive); in assay [15] it was > 100 µM (inactive); in assay [16] it was greater than 100 µM.

In the case of `CCOC(=O)C1=C(Cl)c2cccnc2C1=O`, the GI50 in [1] is > 100 µM (inactive); in assay [2], 52.4 µM (inactive); in assay [3], 27.7 µM (inactive); in assay [4], 27.4 µM (inactive); in assay [5], > 100 µM (inactive); in assay [6], 52.8 µM (inactive). Further, the GI50 in assay [7] is > 100 µM (inactive); in [8], 28 µM (inactive); in assay [18], > 100 µM (inactive); in assay [9] it was 39.4 µM (inactive); in assay [10], 16.4 µM (inactive); in assay [11] it was 26.4 µM (inactive). Besides, the GI50 in assay [12] was 31.3 µM (inactive); in assay [13], > 100 µM (inactive); in [14], 39.7 µM (inactive); in assay [15], 43.4 µM (inactive); in [16], 53.7 µM; in assay [19], 86.5 µM (inactive).

In the case of `CC(C)CC(NC(=O)C(CCC(=O)OCc1ccccc1)NC(=O)OC(C)(C)C)C(=O)NC(COCc1ccccc1)C(=O)NC(Cc1ccccc1)C(=O)O` (stereo not drawn) (Boc-E(OBn)LS(Bn)F-OH; configuration not given here), the GI50 in assay [2], in assay [3], in assay [4], in assay [5], in assay [6] and in assay [7] was > 100 µM (inactive) in each case. Also, the GI50 in assay [18] was > 100 µM (inactive); in assay [10], > 100 µM (inactive); in assay [12], 46.9 µM (inactive); in [13] it was > 100 µM (inactive); in [14], > 100 µM (inactive); in assay [15] it was > 100 µM (inactive). The compound also had a GI50 in [16] greater than 100 µM.

Values taken from ChEMBL document CHEMBL1201862, “PubChem BioAssay data set” (2004).
